Results from PubChem BioAssay AID256 (DTP/NCI, 2004).
Several values for one entry are separate records, joined by “and”; a condition that tells them apart may be missing. Equal values may be shown once. Toxic doses and inconclusive results are not listed.

System: CD2F1 mice, L1210 leukemia ip, survival T/C
Test: NCI In Vivo Anticancer Drug Screen. Data for tumor model L1210 Leukemia (intraperitoneal) in CD2F1 (CDF1) mice
Conditions: higher = longer survival
In short: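 Read-out first: treated-group measurement over vehicle-control measurement, expressed as a ratio. Animals bore a transplanted tumor line and were dosed with compound or vehicle.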

[1] = endpoint: mean survival time, dose: 100.0 mg/kg/injection, schedule: Q01DX009 (ip), vehicle: saline with Tween-80
[2] = endpoint: mean survival time, dose: 100.0 mg/kg/injection, schedule: Q04DX003 (ip), vehicle: saline with Tween-80
[3] = endpoint: mean survival time, dose: 200.0 mg/kg/injection, schedule: Q01DX009 (ip), vehicle: saline with Tween-80
[4] = endpoint: mean survival time, dose: 400.0 mg/kg/injection, schedule: Q01DX009 (ip), vehicle: saline with Tween-80
[5] = endpoint: mean survival time, dose: 100.0 mg/kg/injection, schedule: Q04DX002 (ip), vehicle: saline with Tween-80
[6] = endpoint: mean survival time, dose: 400.0 mg/kg/injection, schedule: Q04DX002 (ip), vehicle: saline with Tween-80

CCCCCCCCCCCCCCCCCCOCCCCCCCCCCCCCCCCCC
T/C [1]: 102 % of control | T/C [2]: 95 % of control | T/C [3]: 98 % of control | T/C (endpoint: mean survival time, dose: 200.0 mg/kg/injection, schedule: Q04DX003 (ip), vehicle: saline with Tween-80): 88 % of control | T/C [4]: 93 % of control | T/C (endpoint: mean survival time, dose: 400.0 mg/kg/injection, schedule: Q04DX003 (ip), vehicle: saline with Tween-80): 92 % of control

CNC(=O)c1cccc2c(Nc3ccc(NS(C)(=O)=O)cc3OC)c3cccc(C)c3nc12
T/C (endpoint: median survival time, dose: 3.0 mg/kg/injection, schedule: Q01DX009 (ip), vehicle: water): 181 % of control | T/C (endpoint: median survival time, dose: 6.25 mg/kg/injection, schedule: Q01DX009 (ip), vehicle: water): 195 % of control | T/C (endpoint: median survival time, dose: 12.0 mg/kg/injection, schedule: Q01DX009 (ip), vehicle: water): 98 % of control | T/C (endpoint: median survival time, dose: 12.5 mg/kg/injection, schedule: Q01DX005 (oral), vehicle: water): 160 % of control | T/C (endpoint: median survival time, dose: 12.5 mg/kg/injection, schedule: Q01DX009 (ip), vehicle: water): 102 % of control | T/C (endpoint: median survival time, dose: 25.0 mg/kg/injection, schedule: Q01DX005 (oral), vehicle: water): 102 % of control | T/C (endpoint: median survival time, dose: 25.0 mg/kg/injection, schedule: Q01DX009 (ip), vehicle: water): 87 % of control

COC(=O)NS(=O)(=O)Nc1ccccc1
T/C [1]: 93 % of control | T/C [3]: 93 % of control | T/C [4]: 87 % of control

C/C(=C\Br)CO
T/C (endpoint: mean survival time, dose: 50.0 mg/kg/injection, schedule: Q01DX009 (ip), vehicle: acetone): 100 % of control | T/C (endpoint: mean survival time, dose: 100.0 mg/kg/injection, schedule: Q01DX009 (ip), vehicle: acetone): 96 % of control | T/C (endpoint: mean survival time, dose: 200.0 mg/kg/injection, schedule: Q01DX009 (ip), vehicle: acetone): 96 % of control

O=S(=O)(/N=C1\c2ccccc2/C(=N\S(=O)(=O)c2ccccc2)C2C3C=CC(C3)C12)c1ccccc1 (stereo not drawn)
T/C (endpoint: mean survival time, dose: 25.0 mg/kg/injection, schedule: Q01DX001 (ip), vehicle: saline sonified): 107 % of control | T/C (endpoint: mean survival time, dose: 50.0 mg/kg/injection, schedule: Q01DX001 (ip), vehicle: saline sonified): 102 % of control | T/C (endpoint: mean survival time, dose: 100.0 mg/kg/injection, schedule: Q01DX001 (ip), vehicle: saline sonified): 101 % of control

CN(C)C(=S)Oc1ccc(S(=O)(=O)F)c(Cl)c1Cl
T/C [5]: 87 % of control | T/C [6]: 87 % of control

O=c1ccn2c(n1)OC1CC2OC1COC(c1ccccc1)(c1ccccc1)c1ccccc1 (stereo not drawn)
T/C (endpoint: median survival time, dose: 12.5 mg/kg/injection, schedule: Q01DX005 (ip), vehicle: saline with Tween-80): 102 % of control | T/C (endpoint: median survival time, dose: 25.0 mg/kg/injection, schedule: Q01DX005 (ip), vehicle: saline with Tween-80): 96 % of control | T/C (endpoint: median survival time, dose: 50.0 mg/kg/injection, schedule: Q01DX005 (ip), vehicle: saline with Tween-80): 95 % of control | T/C (endpoint: median survival time, dose: 100.0 mg/kg/injection, schedule: Q01DX005 (ip), vehicle: saline with Tween-80): 95 % of control | T/C (endpoint: median survival time, dose: 200.0 mg/kg/injection, schedule: Q01DX005 (ip), vehicle: saline with Tween-80): 98 % of control

Cc1ccc([Si](C)Cl)cc1
T/C [1]: 96 % of control | T/C [3]: 93 % of control

Nc1nc(N)nc(CBr)n1
T/C (endpoint: mean survival time, dose: 3.13 mg/kg/injection, schedule: Q01DX001 (ip), vehicle: Klucel (hydroxypropylcellulose) (HPC)): 98 % of control | T/C (endpoint: mean survival time, dose: 6.25 mg/kg/injection, schedule: Q01DX001 (ip), vehicle: Klucel (hydroxypropylcellulose) (HPC)): 98 % of control | T/C (endpoint: mean survival time, dose: 12.5 mg/kg/injection, schedule: Q01DX001 (ip), vehicle: Klucel (hydroxypropylcellulose) (HPC)): 88 % of control

CCCCCCCCC(=O)N1CCCCC1
T/C (endpoint: mean survival time, dose: 100.0 mg/kg/injection, schedule: Q04DX003 (ip), vehicle: saline): 101 % of control | T/C (endpoint: mean survival time, dose: 200.0 mg/kg/injection, schedule: Q04DX003 (ip), vehicle: saline): 102 % of control | T/C (endpoint: mean survival time, dose: 400.0 mg/kg/injection, schedule: Q04DX003 (ip), vehicle: saline): 96 % of control

c1ccc(CCNc2ncnc3nc[nH]c23)cc1
T/C (endpoint: mean survival time, dose: 6.25 mg/kg/injection, schedule: Q01DX005 (ip), vehicle: water): 94 % of control | T/C (endpoint: mean survival time, dose: 12.5 mg/kg/injection, schedule: Q01DX005 (ip), vehicle: water): 96 % of control | T/C (endpoint: mean survival time, dose: 25.0 mg/kg/injection, schedule: Q01DX005 (ip), vehicle: water): 96 % of control | T/C (endpoint: mean survival time, dose: 50.0 mg/kg/injection, schedule: Q01DX005 (ip), vehicle: water): 97 % of control | T/C (endpoint: mean survival time, dose: 100.0 mg/kg/injection, schedule: Q01DX005 (ip), vehicle: water): 92 % of control | T/C (endpoint: mean survival time, dose: 200.0 mg/kg/injection, schedule: Q01DX005 (ip), vehicle: water): 111 % of control

C[N+](C)(C)CC(=O)N/N=C\c1c(O)ccc2ccccc12
T/C [2]: 97 % of control

O=C(O)CCC(NC(=O)COc1ccc(Cl)cc1Cl)C(=O)O (stereo not drawn)
T/C (endpoint: mean survival time, dose: 25.0 mg/kg/injection, schedule: Q04DX002 (ip), vehicle: saline with Tween-80): 100 % of control | T/C (endpoint: mean survival time, dose: 50.0 mg/kg/injection, schedule: Q04DX002 (ip), vehicle: saline with Tween-80): 95 % of control | T/C [5]: 100 % of control and 101 % of control | T/C [6]: 93 % of control
